The results in this text go back to paper PMC8359193, “Summary of reference chemicals evaluated by the fish short‐term reproduction assay, OECD TG229, using Japanese Medaka, Oryzias latipes” (Journal of Applied Toxicology, 2021).

Experiment [1] concerns the target T1, medaka Esr1 (mEsr1) (Oryzias latipes, UniProt P50241).
T1 construct: expressed in transfected cells; host or cells: HEK293 (human embryonic kidney cells), transient transfection with FuGENE HD
T1 sequence (P50241 1-620): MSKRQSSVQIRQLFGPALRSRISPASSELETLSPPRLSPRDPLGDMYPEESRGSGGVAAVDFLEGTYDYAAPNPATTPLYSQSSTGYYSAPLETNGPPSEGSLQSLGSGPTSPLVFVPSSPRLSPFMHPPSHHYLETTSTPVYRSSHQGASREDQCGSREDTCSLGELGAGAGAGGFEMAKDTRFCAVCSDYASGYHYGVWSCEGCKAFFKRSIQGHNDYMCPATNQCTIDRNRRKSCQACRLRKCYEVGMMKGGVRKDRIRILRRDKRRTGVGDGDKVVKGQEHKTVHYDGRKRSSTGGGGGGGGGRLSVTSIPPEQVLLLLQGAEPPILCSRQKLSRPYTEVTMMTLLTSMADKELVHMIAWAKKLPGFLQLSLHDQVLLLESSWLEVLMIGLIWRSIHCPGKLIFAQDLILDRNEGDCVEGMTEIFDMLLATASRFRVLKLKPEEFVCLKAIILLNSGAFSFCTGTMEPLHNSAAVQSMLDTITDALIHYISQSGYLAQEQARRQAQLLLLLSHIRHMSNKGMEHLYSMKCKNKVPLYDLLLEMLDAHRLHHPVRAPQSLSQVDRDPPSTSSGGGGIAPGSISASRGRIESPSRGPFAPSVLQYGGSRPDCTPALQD
Briefly: Medaka Esr1 reporter gene assay (RGA), antagonist assay with 1 nM E2, HEK293 cells. It counts as cell-based, Japanese medaka (Oryzias latipes). On the procedure:
(§1) To support interpretation of the biological effects observed in the FSTRA studies, in vitro RGAs using medaka Esr1 (mEsr1) and medaka ARβ (mARβ) were performed for the 16 test chemicals. In the present study, Esr1 and ARβ, which are ancestral subtypes among Esrs and ARs in Japanese medaka, were selected based on the phylogenetical analyses of Esr and AR with each receptor RGAs (Ogino et al., [2016], [2018]; Tohyama et al., [2015]).
(§2) The mEsr1 RGA consisting of agonist and antagonist assays were performed according to the methods previously reported (Katsu et al., [2010]; Lange et al., [2012]; Miyagawa et al., [2014]). Briefly, human embryonic kidney cells 293 (HEK293), precultured, were seeded in 96‐well plates at 15,000 cells/well with 200 μl of culture medium, phenol‐red‐free Dulbecco's Modified Eagle's medium (ThermoFisher Scientific K.K., Tokyo, Japan) supplemented with 2‐mM L‐glutamine and 10% charcoal/dextran‐treated fetal bovine serum (Hyclone, UT, USA), and then incubated for 24 h in 5% CO2 at 37°C. After the 24‐h incubation, 20 μl of test medium containing 40 ng of medaka Esr1/pcDNA3.1, 80 ng of ERE‐TK‐Luc, and 20 ng of pRL‐TK‐Rlu and 1.2 μL of transfection reagent FuGENE HD (Promega, WI, USA) were added into each well. The assay plates were incubated for another 4 h in order to transfect the three vectors into the HEK293 cells. After the vectors were successfully transfected, in agonist assay, 24 μl of concentrated test chemical solution was applied to the test medium in the plate wells. […] After chemical treatment for 40 h, luciferase activity of the cells was measured, and the promoter activity was calculated as firefly (Photinus pyralis)‐/sea pansy (Renilla reniformis)‐luciferase activity in each well. The luciferase activities were quantified by a chemiluminescence assay with Dual‐Luciferase Reporter Assay System (Promega) in accordance with the manufacturer's instructions, and luminescence intensity of firefly and sea pansy luciferin was measured using a luminometer, TriStar LB941 (Berthold Technology, Oak Ridge, TN, USA).
(§3) Effect concentrations, that is, EC50 (a half maximal effective concentration) in the agonist assay and IC50 (a half maximal inhibitory concentration) in the antagonist assay, were estimated by nonlinear curve fitting (e.g., three parameters logistic regression curve) using GraphPad Prism (GraphPad Software Inc., La Jolla, CA, USA).

Experiment [2] concerns the target T1, medaka Esr1 (mEsr1). As to the kind of experiment: cell-based. It counts as cell-based, Japanese medaka (Oryzias latipes). On the procedure: as §1, §2, §3
Where [3] appears, read: mEsr1 RGA antagonist assay, 1 nM E2-mediated transactivation, ND = no significant response even at the highest assay concentration (in parentheses), read-out: Antagonist assay, IC50, Medaka Esr1.
[4] abbreviates: mEsr1 RGA agonist assay, ND = no significant response even at the highest assay concentration (in parentheses), read-out: Agonist assay, EC50, Medaka Esr1.

pEC50, pIC50: −log10 of the molar value. Entries after “also recorded” stand apart in the source; their conditions may differ. Where two headings read alike, the source gives them in different places.

With `C[C@]12CCC(=O)C=C1CC[C@@H]1[C@@H]2CC[C@@]2(C)[C@H]1CC[C@]2(C)O` [MT, 17α‐methyltestosterone], the pIC50 at medaka Esr1 (mEsr1) [1] (setting [3]) is under 5.00.

`CCC(C)(C)c1ccc(O)cc1` [PTH, 4‐tert‐Pentylphenol]: the pEC50 at medaka Esr1 (mEsr1) [2] (setting [4]) was 6.01.

Molecule `CC(=O)N1CCN(c2ccc(OCC3COC(Cn4ccnc4)(c4ccc(Cl)cc4Cl)O3)cc2)CC1` (centres unmarked) [KCZ, Ketoconazole] gave a negative-log IC50 (pIC50) against medaka Esr1 (mEsr1) [1] of under 5.00.

As for `C[C@]12C=CC3=C4CCC(=O)C=C4CC[C@H]3[C@@H]1CC[C@@H]2O` [TRB, 17β‐Trenbolone], on medaka Esr1 (mEsr1) [1], the pIC50 is under 5.00.

Consider `C#C[C@]1(O)CC[C@H]2[C@@H]3CCc4cc(O)ccc4[C@H]3CC[C@@]21C` [EE2, 17α‐Ethynylestradiol], for which the pEC50 on medaka Esr1 (mEsr1) [2] (setting [4]) was 9.06.

Take `Cc1cc(O)ccc1Cl` [CMP, 4‐Chloro‐3‐methylphenol]: the pEC50 at medaka Esr1 (mEsr1) [2] (read-out: Agonist assay, EC50, Medaka Esr1, mEsr1 RGA agonist assay, ND = no significant response even at the highest assay concentration (in parentheses)) was 4.21.

`C#C[C@]1(O)CC[C@H]2[C@@H]3CCC4=CC(=O)CC[C@@H]4[C@H]3CC[C@@]21CC` [LNG, Levonorgestrel]: the pEC50 at medaka Esr1 (mEsr1) [2] (setting [4]) was 5.96. Besides, on medaka Esr1 (mEsr1) [1], the pIC50 was under 4.00.

For the molecule `CC(=O)[C@H]1CC[C@H]2[C@@H]3CCC4=CC(=O)CC[C@]4(C)[C@H]3CC[C@]12C` [P4, Progesterone], the pEC50 at medaka Esr1 (mEsr1) [2] is under 5.00. The pIC50 against medaka Esr1 (mEsr1) [1] is under 5.00.

Consider `CCCCCCCCCCCCOS(=O)(=O)[O-].[Na+]` [SDS, Sodium dodecyl sulfate], for which the “mEsr1 agonist activity (in words)” value on medaka Esr1 (mEsr1) [2] (highest concentration 100 μM) is “could not be determined; also recorded: neithEsr agonistic nor antagonistic activity”. The pEC50 at medaka Esr1 (mEsr1) [2] (setting [4]) was under 4.00. Further, the “mEsr1 antagonist activity (in words)” value at medaka Esr1 (mEsr1) [1] (1 nM E2-mediated mEsr1 transactivation) is listed as “no Esr inhibiting activity; also recorded: neithEsr agonistic nor antagonistic activity”. Besides, at medaka Esr1 (mEsr1) [1] (setting [3]), the negative logarithm of the IC50 (pIC50) is under 4.00.
